pEC50: −log10 of the molar value.
Biological target: human GPR40 receptor (Homo sapiens (Human), UniProt O14842)
Assay: IP1 accumulation measurements using the IPOne assay system
Format: cell-based
Details: 1321N1 cells stably expressing human GPR40 receptor, 1 h stimulation
Protocol: IP1 accumulation measurements using the IPOne assay system—1321N1 cells stably expressing human GPR40 receptor (Euroscreen, Belgium) are seeded 24 h before the assay in white 384-well plates in culture medium containing 10% FCS, 1% Na-Pyruvate and 400 μg/mL G418. IP1 is assayed according to the manufacturer's description (Cisbio Bioassays, France). In brief, the assay is started by substitution of the culture medium by stimulation buffer (Hepes 10 mM, CaCl2 1 mM, MgCl2 0.5 mM, KCl 4.2 mM, NaCl 146 mM, glucose 5.5 mM and LiCl 50 mM, pH 7.4). Cells are stimulated for 1 h at 37° C., 5% CO2 by addition of the compounds that are diluted in stimulation buffer containing LiCl. Assays are stopped by adding HTRF-conjugates (IP1-d2 and Anti-IP1 cryptate Tb) and lysis buffer, provided by the manufacturer. After an incubation time of 1 h at room temperature plates are measured using an EnVision™, Perkin Elmer. The obtained fluorescence ratios at 665/615 […] are then used to calculate the pEC50 values using Assay Explorer 3.3 Software (Accelrys, Inc.) by interpolation using an IP1 reference curve and subsequent sigmoidal curve fitting allowing for a variable hill slope.

Chain of human GPR40 receptor (O14842 whole entry): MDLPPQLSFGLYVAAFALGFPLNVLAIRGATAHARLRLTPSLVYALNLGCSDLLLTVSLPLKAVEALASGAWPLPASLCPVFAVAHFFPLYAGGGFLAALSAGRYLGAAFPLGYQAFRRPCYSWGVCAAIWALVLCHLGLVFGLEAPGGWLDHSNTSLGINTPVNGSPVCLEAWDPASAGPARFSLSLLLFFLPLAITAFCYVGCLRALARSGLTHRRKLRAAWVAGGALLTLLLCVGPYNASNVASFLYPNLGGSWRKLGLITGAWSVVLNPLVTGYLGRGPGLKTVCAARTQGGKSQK

**Q.** With `O=C(O)C[C@@H]1COc2cc(O[C@@H]3CCc4c(Oc5ccc(OCC6(O)CCOCC6)c(F)c5)ccc(F)c43)ccc21` [Example 37, [(S)-6-((R)-7-Fluoro-4-{3-fluoro-4-[(4-hydroxytetrahydro-2H-pyran-4-yl)-methoxy]phenoxy}-indan-1-yloxy)-2,3-dihydrobenzofuran-3-yl]-acetic acid] as the compound, how does the pEC50 read?
**A.** 8.10

**Q.** With `Cn1ccnc1-c1ccc(Oc2ccc(F)c3c2CC[C@H]3Oc2ccc3c(c2)OC[C@H]3CC(=O)O)cc1` [Example 38, ((S)-6-{(R)-7-Fluoro-4-[4-(1-methyl-1H-imidazol-2-yl)phenoxy]-indan-1-yloxy}-2,3-dihydrobenzofuran-3-yl)-acetic acid] as the compound, how does the pEC50 read?
**A.** 7.39

**Q.** How did the pEC50 turn out when `CS(=O)(=O)CCCOc1cc(F)c(Oc2ccc(F)c3c2CC[C@H]3Oc2ccc3c(c2)OC[C@H]3CC(=O)O)cc1F` [Example 39, [(S)-6-((R)-4-{2,5-Difluoro-4-[3-(methylsulfonyl)propoxy]phenoxy}-7-fluoro-indan-1-yloxy)-2,3-dihydrobenzofuran-3-yl]-acetic acid] was run?
**A.** 7.64

**Q.** `Cc1cc(OCCC(C)(C)O)cc(C)c1Oc1ccc(F)c2c1CC[C@H]2Oc1ccc2c(c1)OC[C@H]2CC(=O)O` [Example 40, ((S)-6-{(R)-7-Fluoro-4-[4-(3-hydroxy-3-methylbutoxy)-2,6-dimethylphenoxy]-indan-1-yloxy}-2,3-dihydrobenzofuran-3-yl)-acetic acid] was tested. Which pEC50 did it give?
**A.** 6.13

**Q.** `CC(C)(O)CCCc1ccc(C#N)c(Oc2ccc(F)c3c2CC[C@H]3Oc2ccc3c(c2)OC[C@H]3CC(=O)O)c1` [Example 41, ((S)-6-{(R)-4-[2-Cyano-5-(4-hydroxy-4-methylpentyl)phenoxy]-7-fluoro-indan-1-yloxy}-2,3-dihydrobenzofuran-3-yl)-acetic acid] was tested. Which pEC50 did it give?
**A.** 7.07

**Q.** How did the pEC50 turn out when `CC(C)(O)CCOc1ccc(C#N)c(Oc2ccc(F)c3c2CC[C@H]3Oc2ccc3c(c2)OC[C@H]3CC(=O)O)c1` [Example 42, ((S)-6-{(R)-4-[2-Cyano-5-(3-hydroxy-3-methylbutoxy)-phenoxy]-7-fluoro-indan-1-yloxy}-2,3-dihydrobenzofuran-3-yl)-acetic acid] was run?
**A.** 6.92

**Q.** With `N#Cc1cc(Oc2ccc(F)c3c2CC[C@H]3Oc2ccc3c(c2)OC[C@H]3CC(=O)O)ccc1O[C@@H]1CCOC1` [Example 43, ((S)-6-{(R)-4-[3-Cyano-4-((R)-tetrahydrofuran-3-yloxy)phenoxy]-7-fluoro-indan-1-yloxy}-2,3-dihydrobenzofuran-3-yl)-acetic acid] as the compound, how does the pEC50 read?
**A.** 7.74

**Q.** `CC(C)(O)CCOc1ccc(Oc2ccc(F)c3c2CC[C@H]3Oc2ccc3c(c2)OC[C@H]3CC(=O)O)cc1C#N` [Example 44, ((S)-6-{(R)-4-[3-Cyano-4-(3-hydroxy-3-methylbutoxy)phenoxy]-7-fluoro-indan-1-yloxy}-2,3-dihydrobenzofuran-3-yl)-acetic acid] was tested. Which pEC50 did it give?
**A.** 8.15

**Q.** With `CC(C)(O)CCOc1ccc(F)c(Oc2ccc(F)c3c2CC[C@H]3Oc2ccc3c(c2)OC[C@H]3CC(=O)O)c1` [Example 45, ((S)-6-{(R)-7-Fluoro-4-[2-fluoro-5-(3-hydroxy-3-methylbutoxy)phenoxy]-indan-1-yloxy}-2,3-dihydrobenzofuran-3-yl)-acetic acid] as the compound, how does the pEC50 read?
**A.** 7.54

**Q.** With `O=C(O)C[C@@H]1COc2cc(O[C@@H]3CCc4c(Oc5cc(OC6CCOCC6)ccc5F)ccc(F)c43)ccc21` [Example 46, ((S)-6-{(R)-7-Fluoro-4-[2-fluoro-5-(tetrahydro-2H-pyran-4-yloxy)phenoxy]-indan-1-yloxy}-2,3-dihydrobenzofuran-3-yl)-acetic acid] as the compound, how does the pEC50 read?
**A.** 7.21

**Q.** With `CC(C)(O)CCOc1ccc(Oc2ccc(F)c3c2CC[C@H]3Oc2ccc3c(c2)OC[C@H]3CC(=O)O)c(C#N)c1` [Example 47, ((S)-6-{(R)-4-[2-Cyano-4-(3-hydroxy-3-methylbutoxy)phenoxy]-7-fluoro-indan-1-yloxy}-2,3-dihydrobenzofuran-3-yl)-acetic acid] as the compound, how does the pEC50 read?
**A.** 8.10

**Q.** With `Cn1nccc1-c1ccc(Oc2ccc(F)c3c2CC[C@H]3Oc2ccc3c(c2)OC[C@H]3CC(=O)O)c(C#N)c1` [Example 48, ((S)-6-{(R)-4-[2-Cyano-4-(1-methyl-1H-pyrazol-5-yl)phenoxy]-7-fluoro-indan-1-yloxy)-2,3-dihydrobenzofuran-3-yl}-acetic acid] as the compound, how does the pEC50 read?
**A.** 8.05

**Q.** How did the pEC50 turn out when `Cc1noc(C)c1-c1ccc(Oc2ccc(F)c3c2CC[C@H]3Oc2ccc3c(c2)OC[C@H]3CC(=O)O)c(C#N)c1` [Example 49, ((S)-6-{(R)-4-[2-Cyano-4-(3,5-dimethylisoxazol-4-yl)phenoxy]-7-fluoro-indan-1-yloxy}-2,3-dihydrobenzofuran-3-yl)-acetic acid] was run?
**A.** 7.77

**Q.** With `O=C(O)C[C@@H]1COc2cc(O[C@@H]3CCc4c(Oc5ccc(OC6CCOCC6)cc5F)ccc(F)c43)ccc21` [Example 50, ((S)-6-{(R)-7-Fluoro-4-[2-fluoro-4-(tetrahydro-2H-pyran-4-yloxy)phenoxy]-indan-1-yloxy}-2,3-dihydrobenzofuran-3-yl)-acetic acid] as the compound, how does the pEC50 read?
**A.** 8.40

**Q.** How did the pEC50 turn out when `N#Cc1ccc(Oc2ccc(F)c3c2CC[C@H]3Oc2ccc3c(c2)OC[C@H]3CC(=O)O)cc1OC1CCOCC1` [Example 51, ((S)-6-{(R)-4-[4-Cyano-3-(tetrahydro-2H-pyran-4-yloxy)phenoxy]-7-fluoro-indan-1-yloxy}-2,3-dihydrobenzofuran-3-yl)-acetic acid] was run?
**A.** 7.54

**Q.** `CC(C)(O)COc1cc(Oc2ccc(F)c3c2CC[C@H]3Oc2ccc3c(c2)OC[C@H]3CC(=O)O)ccc1C#N` [Example 52, ((S)-6-{(R)-4-[4-Cyano-3-(2-hydroxy-2-methylproproxy)phenoxy]-7-fluoro-indan-1-yloxy}-2,3-dihydrobenzofuran-3-yl)-acetic acid] was tested. Which pEC50 did it give?
**A.** 7.51

**Q.** With `CC(C)(O)CCOc1ccc(Oc2ccc(F)c3c2CC[C@H]3Oc2ccc3c(c2)OC[C@H]3CC(=O)O)c(F)c1` [Example 53, ((S)-6-{(R)-7-Fluoro-4-[2-fluoro-4-(3-hydroxy-3-methylbutoxy)phenoxy]-indan-1-yloxy}-2,3-dihydrobenzofuran-3-yl)-acetic acid] as the compound, how does the pEC50 read?
**A.** 8.15

**Q.** How did the pEC50 turn out when `Cc1noc(C)c1-c1ccc(Oc2ccc(F)c3c2CC[C@H]3Oc2ccc3c(c2)OC[C@H]3CC(=O)O)c(F)c1` [Example 54, ((S)-6-{(R)-4-[4-(3,5-Dimethylisoxazol-4-yl)-2-fluorophenoxy]-7-fluoro-indan-1-yloxy}-2,3-dihydrobenzofuran-3-yl)-acetic acid] was run?
**A.** 8.05

**Q.** With `Cn1nccc1-c1ccc(Oc2ccc(F)c3c2CC[C@H]3Oc2ccc3c(c2)OC[C@H]3CC(=O)O)c(F)c1` [Example 55, ((S)-6-{(R)-7-Fluoro-4-[2-fluoro-4-(1-methyl-1H-pyrazol-5-yl)phenoxy]-indan-1-yloxy}-2,3-dihydrobenzofuran-3-yl)-acetic acid] as the compound, how does the pEC50 read?
**A.** 8.22

**Q.** How did the pEC50 turn out when `CC(C)(O)CCCc1ccc(Oc2ccc(F)c3c2CC[C@H]3Oc2ccc3c(c2)OC[C@H]3CC(=O)O)c(C#N)c1` [Example 56, ((S)-6-{(R)-4-[2-Cyano-4-(4-hydroxy-4-methylpentyl)phenoxy]-7-fluoro-indan-1-yloxy}-2,3-dihydrobenzofuran-3-yl)-acetic acid] was run?
**A.** 7.42

**Q.** With `O=C(O)C[C@@H]1COc2cc(O[C@@H]3CCc4c(Oc5cccc(N6CCCC6=O)c5)ccc(F)c43)ccc21` [Example 57, ((S)-6-{(R)-7-Fluoro-4-[3-(2-oxopyrrolidin-1-yl)phenoxy]-indan-1-yloxy}-2,3-dihydrobenzofuran-3-yl)-acetic acid] as the compound, how does the pEC50 read?
**A.** 8.40

**Q.** With `O=C(O)C[C@@H]1COc2cc(O[C@@H]3CCc4c(Oc5ccc(N6CCCC6=O)cc5)ccc(F)c43)ccc21` [Example 58, ((S)-6-{(R)-7-Fluoro-4-[4-(2-oxopyrrolidin-1-yl)phenoxy]-indan-1-yloxy}-2,3-dihydrobenzofuran-3-yl)-acetic acid] as the compound, how does the pEC50 read?
**A.** 7.74

**Q.** How did the pEC50 turn out when `O=C(O)C[C@@H]1COc2cc(O[C@@H]3CCc4c(Oc5ccc(CN6CCCC6)cc5)ccc(F)c43)ccc21` [Example 59, ((S)-6-{(R)-7-Fluoro-4-[4-(pyrrolidin-1-ylmethyl)phenoxy]-indan-1-yloxy}-2,3-dihydrobenzofuran-3-yl)-acetic acid] was run?
**A.** 6.67

**Q.** With `N#CCc1ccc(Oc2ccc(F)c3c2CC[C@H]3Oc2ccc3c(c2)OC[C@H]3CC(=O)O)cc1` [Example 60, ((S)-6-{(R)-4-[4-(Cyanomethyl)phenoxy]-7-fluoro-indan-1-yloxy}-2,3-dihydrobenzofuran-3-yl)-acetic acid] as the compound, how does the pEC50 read?
**A.** 7.70

**Q.** With `N#CCCc1ccc(Oc2ccc(F)c3c2CC[C@H]3Oc2ccc3c(c2)OC[C@H]3CC(=O)O)cc1` [Example 61, ((S)-6-{(R)-4-[4-(2-Cyanoethyl)phenoxy]-7-fluoro-indan-1-yloxy}-2,3-dihydrobenzofuran-3-yl)-acetic acid] as the compound, how does the pEC50 read?
**A.** 7.89

**Q.** With `CC(C)(O)CCc1ccc(Oc2ccc(F)c3c2CC[C@H]3Oc2ccc3c(c2)OC[C@H]3CC(=O)O)c(C#N)c1` [Example 62, ((S)-6-{(R)-4-[2-Cyano-4-(3-hydroxy-3-methylbutyl)phenoxy]-7-fluoro-indan-1-yloxy}-2,3-dihydrobenzofuran-3-yl)-acetic acid] as the compound, how does the pEC50 read?
**A.** 7.92

**Q.** With `CN(C)C(=O)c1ccc(Oc2ccc(F)c3c2CC[C@H]3Oc2ccc3c(c2)OC[C@H]3CC(=O)O)cc1` [Example 63, ((S)-6-{(R)-4-[4-(Dimethylcarbamoyl)phenoxy]-7-fluoro-indan-1-yloxy}-2,3-dihydrobenzofuran-3-yl)-acetic acid] as the compound, how does the pEC50 read?
**A.** 7.66

**Q.** How did the pEC50 turn out when `O=C(O)C[C@@H]1COc2cc(O[C@@H]3CCc4c(Oc5ccc(C(=O)N6CCOCC6)cc5)ccc(F)c43)ccc21` [Example 64, ((S)-6-{(R)-7-Fluoro-4-[4-(morpholine-4-carbonyl)phenoxy]-indan-1-yloxy}-2,3-dihydrobenzofuran-3-yl)-acetic acid] was run?
**A.** 7.57

Reference: US9597310B2, “Indanyloxydihydrobenzofuranylacetic acids” (Boehringer Ingelheim International GmbH, priority 2012, dated 2017)
